Assay results taken from the NIST ThermoML archive (doi:10.1021/acs.jced.7b00694).
Numbers after ± are expanded uncertainties.

Experiment: xn = mol fraction of the nth substance listed
Settings: Gas, Buoyancy - hydrostatic balance with magnetic suspension - one sinker

[HH] [hydrogen] + N#N
Settings | mass density [kg/m3]
250.04 K, 11001 kPa, x2 = 0.9 | 137.2 ± 0.074
250.04 K, 11002 kPa, x2 = 0.5001 | 76.353 ± 0.047
250.04 K, 12001 kPa, x2 = 0.5001 | 82.831 ± 0.048
250.04 K, 12002 kPa, x2 = 0.9 | 149.273 ± 0.074
250.04 K, 13003 kPa, x2 = 0.5001 | 89.231 ± 0.047
250.04 K, 13005 kPa, x2 = 0.9 | 161.179 ± 0.075
250.04 K, 14001 kPa, x2 = 0.5001 | 95.51 ± 0.048
250.04 K, 15005 kPa, x2 = 0.5001 | 101.724 ± 0.049
250.04 K, 15008 kPa, x2 = 0.9 | 184.307 ± 0.075
250.04 K, 16003 kPa, x2 = 0.5001 | 107.801 ± 0.048
250.04 K, 17004 kPa, x2 = 0.5001 | 113.79 ± 0.049
250.04 K, 17014 kPa, x2 = 0.9 | 206.478 ± 0.076
250.04 K, 18007 kPa, x2 = 0.5001 | 119.684 ± 0.05
250.04 K, 18011 kPa, x2 = 0.9 | 217.113 ± 0.076
250.04 K, 19005 kPa, x2 = 0.5001 | 125.441 ± 0.05
250.04 K, 19653 kPa, x2 = 0.9 | 234.021 ± 0.079
250.04 K, 19934 kPa, x2 = 0.5001 | 130.7 ± 0.05
250.05 K, 14008 kPa, x2 = 0.9 | 172.872 ± 0.075
250.05 K, 16004 kPa, x2 = 0.9 | 195.446 ± 0.075
250.05 K, 19014 kPa, x2 = 0.9 | 227.523 ± 0.076
260.02 K, 999 kPa, x2 = 0.95 | 12.396 ± 0.067
260.02 K, 1998 kPa, x2 = 0.95 | 24.915 ± 0.068
260.02 K, 2987 kPa, x2 = 0.95 | 37.39 ± 0.069
260.02 K, 3998 kPa, x2 = 0.95 | 50.206 ± 0.07
260.02 K, 4998 kPa, x2 = 0.95 | 62.921 ± 0.071
260.02 K, 5998 kPa, x2 = 0.95 | 75.652 ± 0.072
260.02 K, 6997 kPa, x2 = 0.95 | 88.348 ± 0.072
260.02 K, 8004 kPa, x2 = 0.95 | 101.083 ± 0.073
260.02 K, 8999 kPa, x2 = 0.95 | 113.598 ± 0.074
260.02 K, 10003 kPa, x2 = 0.95 | 126.121 ± 0.074
260.02 K, 11004 kPa, x2 = 0.95 | 138.476 ± 0.075
260.02 K, 12004 kPa, x2 = 0.95 | 150.65 ± 0.075
260.02 K, 13007 kPa, x2 = 0.95 | 162.68 ± 0.076
260.02 K, 13989 kPa, x2 = 0.95 | 174.256 ± 0.076
260.02 K, 15009 kPa, x2 = 0.95 | 186.058 ± 0.076
260.02 K, 16012 kPa, x2 = 0.95 | 197.415 ± 0.076
260.02 K, 17003 kPa, x2 = 0.95 | 208.387 ± 0.076
260.02 K, 18018 kPa, x2 = 0.95 | 219.361 ± 0.076
260.02 K, 19020 kPa, x2 = 0.95 | 229.93 ± 0.077
260.02 K, 19954 kPa, x2 = 0.95 | 239.529 ± 0.08
260.03 K, 998 kPa, x2 = 0.9 | 11.773 ± 0.064
260.03 K, 2000 kPa, x2 = 0.9 | 23.676 ± 0.065
260.04 K, 2987 kPa, x2 = 0.9 | 35.462 ± 0.066
260.04 K, 3998 kPa, x2 = 0.9 | 47.566 ± 0.067
260.04 K, 4998 kPa, x2 = 0.9 | 59.561 ± 0.068
260.04 K, 5998 kPa, x2 = 0.9 | 71.547 ± 0.068
260.04 K, 6999 kPa, x2 = 0.9 | 83.502 ± 0.069
260.04 K, 7999 kPa, x2 = 0.9 | 95.394 ± 0.069
260.04 K, 9000 kPa, x2 = 0.9 | 107.209 ± 0.07
260.04 K, 10001 kPa, x2 = 0.9 | 118.929 ± 0.071
260.04 K, 11002 kPa, x2 = 0.9 | 130.507 ± 0.071
260.04 K, 12001 kPa, x2 = 0.9 | 141.918 ± 0.071
260.04 K, 13005 kPa, x2 = 0.9 | 153.211 ± 0.072
260.04 K, 14004 kPa, x2 = 0.9 | 164.255 ± 0.072
260.04 K, 15004 kPa, x2 = 0.9 | 175.116 ± 0.072
260.04 K, 16007 kPa, x2 = 0.9 | 185.789 ± 0.072
260.04 K, 17014 kPa, x2 = 0.9 | 196.279 ± 0.073
260.04 K, 18009 kPa, x2 = 0.9 | 206.415 ± 0.073
260.04 K, 19010 kPa, x2 = 0.9 | 216.361 ± 0.074
260.04 K, 19736 kPa, x2 = 0.9 | 223.429 ± 0.077
274.98 K, 997 kPa, x2 = 0.9 | 11.103 ± 0.061
274.98 K, 1997 kPa, x2 = 0.9 | 22.285 ± 0.062
274.99 K, 997 kPa, x2 = 0.95 | 11.688 ± 0.064
274.99 K, 998 kPa, x2 = 0.5001 | 6.537 ± 0.04
274.99 K, 1998 kPa, x2 = 0.5001 | 13.041 ± 0.041
274.99 K, 1998 kPa, x2 = 0.95 | 23.478 ± 0.065
274.99 K, 2986 kPa, x2 = 0.95 | 35.164 ± 0.065
274.99 K, 2997 kPa, x2 = 0.9 | 33.49 ± 0.062
274.99 K, 2998 kPa, x2 = 0.5001 | 19.501 ± 0.041
274.99 K, 3997 kPa, x2 = 0.5001 | 25.901 ± 0.041
274.99 K, 3997 kPa, x2 = 0.9 | 44.699 ± 0.063
274.99 K, 3997 kPa, x2 = 0.95 | 47.147 ± 0.066
274.99 K, 4997 kPa, x2 = 0.5001 | 32.248 ± 0.042
274.99 K, 4997 kPa, x2 = 0.95 | 58.999 ± 0.067
274.99 K, 4998 kPa, x2 = 0.9 | 55.901 ± 0.064
274.99 K, 5997 kPa, x2 = 0.5001 | 38.535 ± 0.042
274.99 K, 5998 kPa, x2 = 0.9 | 67.065 ± 0.064
274.99 K, 5998 kPa, x2 = 0.95 | 70.84 ± 0.067
274.99 K, 6997 kPa, x2 = 0.5001 | 44.758 ± 0.042
274.99 K, 6998 kPa, x2 = 0.9 | 78.183 ± 0.065
274.99 K, 6998 kPa, x2 = 0.95 | 82.636 ± 0.068
274.99 K, 7997 kPa, x2 = 0.5001 | 50.911 ± 0.043
274.99 K, 7998 kPa, x2 = 0.9 | 89.232 ± 0.065
274.99 K, 8000 kPa, x2 = 0.95 | 94.385 ± 0.069
274.99 K, 8998 kPa, x2 = 0.5001 | 57.003 ± 0.043
274.99 K, 9000 kPa, x2 = 0.9 | 100.212 ± 0.066
274.99 K, 9000 kPa, x2 = 0.95 | 106.023 ± 0.069
274.99 K, 9998 kPa, x2 = 0.5001 | 63.009 ± 0.043
274.99 K, 9998 kPa, x2 = 0.9 | 111.047 ± 0.066
274.99 K, 10001 kPa, x2 = 0.95 | 117.586 ± 0.07
274.99 K, 10998 kPa, x2 = 0.5001 | 68.948 ± 0.044
274.99 K, 11001 kPa, x2 = 0.9 | 121.821 ± 0.067
274.99 K, 11002 kPa, x2 = 0.95 | 129.012 ± 0.07
274.99 K, 11996 kPa, x2 = 0.5001 | 74.789 ± 0.044
274.99 K, 12001 kPa, x2 = 0.9 | 132.405 ± 0.067
274.99 K, 12003 kPa, x2 = 0.95 | 140.289 ± 0.07
274.99 K, 13000 kPa, x2 = 0.5001 | 80.586 ± 0.044
274.99 K, 13002 kPa, x2 = 0.9 | 142.866 ± 0.067
274.99 K, 13002 kPa, x2 = 0.95 | 151.394 ± 0.071
274.99 K, 13998 kPa, x2 = 0.5001 | 86.267 ± 0.045
